From publication PMC5653977 (EMBO Molecular Medicine, 2017) come the findings set out here.

Structures are written as SMILES. Structures can show the parent of a compound that is named as a salt.

The first experiment concerns NRG1-ERBB4 signaling. The experiment is described as follows: Nrg1-ERBB4-PIK3R1 split TEV co-culture compound screen of the NIH Clinical Collection. Format: cell-based, human. Conditions: NIH Clinical Collection NCC-003 raw data; compounds ranked by Z-score; 'flagged' given instead of a Z-score.
With `CCC(C)n1ncn(-c2ccc(N3CCN(c4ccc(OCC5COC(Cn6cncn6)(c6ccc(Cl)cc6Cl)O5)cc4)CC3)cc2)c1=O` (stereo not shown) [Itraconazole, reference compound], the Z-SCORE is given as -3.6.
`CCC(COC(=O)c1cc(OC)c(OC)c(OC)c1)(c1ccccc1)N(C)C.O=C(O)/C=C\C(=O)O` (stereo not shown) [TRIMEBUTINE MALEATE]: the Z-SCORE is -1.14.
Same read-out and setting: the same measure for `C=CC[C@@H]1/C=C(\C)C[C@H](C)C[C@H](OC)[C@H]2O[C@@](O)(C(=O)C(=O)N3CCCC[C@H]3C(=O)O[C@H](/C(C)=C/[C@@H]3CC[C@@H](O)[C@H](OC)C3)[C@H](C)[C@@H](O)CC1=O)[C@H](C)C[C@@H]2OC` [TACROLIMUS]: -1.97; for `c1ccc(-c2ccc(C(c3ccccc3)n3ccnc3)cc2)cc1` (stereo not shown) [Bifonazole, reference compound]: -3.45; for `Br.COc1ccc2c(c1)[C@@]13CCCC[C@H]1[C@@H](C2)N(C)CC3`: -1.1.
Same read-out and setting: the same measure for `CC12CC3CC(C)(C1)CC(N)(C3)C2` [Memantine hydrochloride, reference compound]: -1.15; for `OC[C@H]1O[C@@H](n2cnc3c(NC4CCCC4)nc(Cl)nc32)[C@H](O)[C@@H]1O` [CCPA]: -1.19.

Still in this experiment, the particulars now being: compound screen of the NIH Clinical Collection, sheet raw data NCC-003; compounds ranked by Z-score.
With `O=C1CN2Cc3c(ccc(Cl)c3Cl)N=C2N1` [ANAGRELIDE HCl], the Z-SCORE is -0.48.
Still for that read-out and setting: the same measure for `CO[C@H]1/C=C/O[C@@]2(C)Oc3c(C)c(O)c4c(O)c(c5c(nc6cc(C)ccn65)c4c3C2=O)NC(=O)/C(C)=C\C=C\[C@H](C)[C@H](O)[C@@H](C)[C@@H](O)[C@@H](C)[C@H](OC(C)=O)[C@@H]1C` [RIFAXIMIN]: 0.05.
Still for that read-out and setting: the same measure for `CCOC(=O)C1=C(C)NC(C)=C(C(=O)OCC)C1c1ccccc1/C=C/C(=O)OC(C)(C)C` [LACIDIPINE]: -0.35; for `CCCCN1CCCC1CNC(=O)c1cc(C#N)c2ccccc2c1OC` (stereo not shown) [Nafadotride]: -0.24; for `CC[C@H](C)C(=O)O[C@H]1C[C@H](O)C=C2C=C[C@H](C)[C@H](CC[C@@H](O)C[C@@H](O)CC(=O)O)[C@H]21` [PRAVASTATIN Sodium]: -0.44.
For the compound `C[C@]12CC[C@H](O)CC1=CC[C@@H]1[C@@H]2CC[C@@]2(C)[C@H]1CC[C@]2(C)O` [METHYLANDROSTENEDIOL], the Z-SCORE is recorded as 0.32.
Same read-out and setting: the same measure for `NC[C@H]1CC[C@H](C(=O)Oc2ccc(CCC(=O)O)cc2)CC1` [CETRAXATE HCl]: 0.04; for `C/C=C1\[C@H]2C=C(C)C[C@]1(N)c1ccc(=O)[nH]c1C2` [HUPERZINE A]: -0.3.
The same measure, in the same setting: the same measure for `CO[C@H]1/C=C/O[C@@]2(C)Oc3c(C)c(O)c4c(c3C2=O)C2=NC3(CCN(CC(C)C)CC3)NC2=C(NC(=O)/C(C)=C\C=C\[C@H](C)[C@H](O)[C@@H](C)[C@@H](O)[C@@H](C)[C@H](OC(C)=O)[C@@H]1C)C4=O` [Rifabutin, reference compound]: 0.07; for `COc1ccc2[nH]cc(C3=CCNCC3)c2c1` [RU 24969]: 0.79; for `Cc1ccnc2c1NC(=O)c1cccnc1N2C1CC1` [Viramune]: 0.09.
Still for that read-out and setting: with `CCCCC(=O)N(Cc1ccc(-c2ccccc2-c2nnn[nH]2)cc1)[C@H](C(=O)O)C(C)C` the figure was -0.23; with `COc1ccnc(C[S+]([O-])c2nc3cc(OC(F)F)ccc3[n-]2)c1OC.[Na+]` (stereo not shown) [PANTOPRAZOLE SODIUM SALT], 1.42; with `C#C[C@]1(O)CC[C@H]2[C@@H]3CCc4cc(OC)ccc4[C@H]3CC[C@@]21C` [MESTRANOL], -0.21.
Take `O=C(NCCO[N+](=O)[O-])c1cccnc1` [NICORANDIL]: the Z-SCORE is reported as -0.09.
Same read-out and setting: with `C[C@@H]1CN(CCCn2c3ccccc3c3ccccc32)C[C@H](C)N1` [Rimcazole] the figure was 0.6; with `CC[C@@]1(O)C(=O)OCc2c1cc1n(c2=O)Cc2cc3c(CN(C)C)c(O)ccc3nc2-1` [Topotecan HCl, reference compound], 7.97.
Still for that read-out and setting: the same measure for `O=[N+]([O-])c1cccc2cn[nH]c12` [7-NITROINDAZOLE]: 0.29.
Same read-out and setting: with `C[C@@H](O)[C@H]1C(=O)N2C(C(=O)O)=C(S[C@@H]3CN[C@H](C(=O)N(C)C)C3)[C@H](C)[C@H]12` [MEROPENEM] the figure was -0.25; with `COc1cc(CNC(=O)CCCC/C=C/C(C)C)ccc1O` [Capsaicin], -0.46; with `C#C[C@]1(O)CC[C@H]2[C@@H]3CCC4=CC(=O)CC[C@@H]4[C@H]3CC[C@@]21CC` [LEVONORGESTREL], -1.05.
Regarding `O=C1CN=C(c2ccccc2)c2cc([N+](=O)[O-])ccc2N1` [Nitrazepam], the Z-SCORE is given as -0.23.
`CCS(=O)(=O)CCn1c([N+](=O)[O-])cnc1C` [TINIDAZOLE]: the Z-SCORE was -0.51.
Still for that read-out and setting: with `C[N+]1(C)CCN(c2ccccc2)CC1.[I-]` [1,1-DIMETHYL-4-PHENYLPIPERAZINIUM IODIDE] the figure was 2.45.
The same measure, in the same setting: the same measure for `NCCc1ccccn1` [2-(2-AMINOETHYL)PYRIDINE]: 2.15; for `NC(=NCc1ccc(Cl)cc1)SCCCc1cnc[nH]1` [Clobenpropit]: -0.9; for `COC(=O)C1=C(C)NC(C)=C(C(=O)OC)C1c1ccccc1[N+](=O)[O-]` [NIFEDIPINE]: 2.68.
The same measure, in the same setting: with `COc1cc(N)c(Cl)cc1C(=O)NC1CN2CCC1CC2` (stereo not shown) [Zacopride] the figure was -0.82; with `O=C(CCCN1CCC(O)(c2ccc(Cl)cc2)CC1)c1ccc(F)cc1` [Haloperidol], -0.98.
For the compound `CC=CC(=O)N(CC)c1ccccc1C` [483-63-6], the Z-SCORE is given as -0.8.
Still for that read-out and setting: with `CC(C(O)c1ccc(O)cc1)N1CCC(Cc2ccccc2)CC1` (stereo not shown) [Ifenprodil] the figure was 1.07; with `COc1cccc(C2(O)CCCCC2CN(C)C)c1` (stereo not shown) [Tramadol], -0.17.
Same read-out and setting: the same measure for `C[C@@H]1O[C@@H](OC[C@H]2O[C@@H](Oc3c(-c4ccc(O)c(O)c4)oc4cc(O)cc(O)c4c3=O)[C@H](O)[C@@H](O)[C@@H]2O)[C@H](O)[C@H](O)[C@H]1O` [RUTIN]: 0.13.

The same experiment, now with this note: compounds at 10 μM, 24 h; PC12 split TEV assay cells co-cultured with Nrg1-expressing PC12 cells; analysed with cellHTS2.
In turn, `CCC(=O)OCC(=O)[C@@]1(OC(=O)CC)[C@@H](C)C[C@H]2[C@@H]3CCC4=CC(=O)C=C[C@]4(C)[C@@]3(Cl)[C@@H](O)C[C@@]21C` [BECLOMETHASONE DIPROPIONATE, reference compound] gave a Z-SCORE of 0.81.
On the same count and under the same terms, with `CCC(C)n1ncn(-c2ccc(N3CCN(c4ccc(OCC5COC(Cn6cncn6)(c6ccc(Cl)cc6Cl)O5)cc4)CC3)cc2)c1=O` (stereo not shown) [Itraconazole, reference compound] the figure was -3.6; with `O=C(NCC1CCCCN1)c1cc(OCC(F)(F)F)ccc1OCC(F)(F)F` (stereo not shown) [Flecainide Acetate, reference compound], -0.19; with `CCC[C@@H]1C[C@@H](C(=O)N[C@@H]([C@H]2O[C@H](SC)[C@H](O)[C@@H](O)[C@H]2O)[C@@H](C)O)N(C)C1` [Lincomycin hydrochloride, reference compound], 0.53.
On the same count and under the same terms, the same measure for `NCCc1ccc(O)c(O)c1` [Intropin, reference compound]: 0.13.
Still for that read-out and setting: the same measure for `Cc1cccc(C)c1OCC(C)N` (stereo not shown) [Mexitil, reference compound]: 1.1.
`CC(=O)NS(=O)(=O)c1ccc(N)cc1` [Sulfacetamide, reference compound]: the Z-SCORE is on record as 0.29.
`CC(C)[N+]1(C)[C@@H]2CC[C@H]1C[C@@H](OC(=O)C(CO)c1ccccc1)C2.O.[Br-]` (stereo partly shown) [IPRATROPIUM BROMIDE MONOHYDRATE, reference compound]: the Z-SCORE came to 0.31.
Turning to `CO[C@H]1/C=C/O[C@@]2(C)Oc3c(C)c(O)c4c(c3C2=O)C2=NC3(CCN(CC(C)C)CC3)NC2=C(NC(=O)/C(C)=C\C=C\[C@H](C)[C@H](O)[C@@H](C)[C@@H](O)[C@@H](C)[C@H](OC(C)=O)[C@@H]1C)C4=O` [Rifabutin, reference compound], the Z-SCORE is on record as -1.04.
On the same count and under the same terms, the same measure for `CCC1(c2ccccc2)C(=O)NCNC1=O` [Primidone, reference compound]: 1.6; for `O=C1NC(=O)C(c2ccccc2)(c2ccccc2)N1` [Dilantin, reference compound]: 0.95.
The same measure, in the same setting: the same measure for `CC[C@@]1(O)C(=O)OCc2c1cc1n(c2=O)Cc2cc3c(CN(C)C)c(O)ccc3nc2-1` [Topotecan HCl, reference compound]: 7.97.
Still for that read-out and setting: with `CNCCCN1c2ccccc2CCc2ccccc21` [Norpramin, reference compound] the figure was -3.45; with `CC[C@H]1OC(=O)[C@H](C)[C@@H](O[C@H]2C[C@@](C)(OC)[C@@H](O)[C@H](C)O2)[C@H](C)[C@@H](O[C@@H]2O[C@H](C)C[C@H](N(C)C)[C@H]2O)[C@](C)(O)C[C@@H](C)CN(C)[C@H](C)[C@@H](O)[C@]1(C)O` [Azithromycin, reference compound], 0.06; with `CC(=O)OCC(=O)[C@@]1(O)CC[C@H]2[C@@H]3C[C@H](C)C4=CC(=O)C=C[C@]4(C)[C@H]3[C@@H](O)C[C@@]21C` [DEPO-MEDROL, reference compound], 0.97.
Take `CCc1nc(N)nc(N)c1-c1ccc(Cl)cc1` [Pyrimethamine, reference compound]: the Z-SCORE is reported as 0.29.
On the same count and under the same terms, with `CN[C@@H]1[C@H](O)[C@H](NC)[C@H]2O[C@@]3(O)C(=O)C[C@@H](C)O[C@H]3O[C@@H]2[C@H]1O.Cl.Cl.O.O.O.O.O` [SPECTINOMYCIN DIHYDROCHLORIDE PENTAHYDRATE, reference compound] the figure was 0.04; with `c1ccc(-c2ccc(C(c3ccccc3)n3ccnc3)cc2)cc1` (stereo not shown) [Bifonazole, reference compound], -3.45.
Same read-out and setting: with `N[C@H](Cc1cc(I)c(Oc2ccc(O)c(I)c2)c(I)c1)C(=O)O` [NSC46046, reference compound] the figure was -1.87.
Take `O=c1[nH]c(=O)n([C@H]2C[C@H](O)[C@@H](CO)O2)cc1F` [Floxuridine, reference compound]: the Z-SCORE was -0.39.
`CC12CC3CC(C)(C1)CC(N)(C3)C2` [Memantine hydrochloride, reference compound] registered a Z-SCORE of 0.5.
On the same count and under the same terms, the same measure for `C[N+]1(C)CCCC(OC(=O)C(O)(c2ccccc2)c2ccccc2)C1` (stereo not shown) [MEPENZOLATE BROMIDE, reference compound]: -0.58; for `O=C1CN(/N=C/c2ccc(-c3ccc([N+](=O)[O-])cc3)o2)C(=O)[N-]1.[Na+]` [Dantrolene sodium salt, reference compound]: 0.78.
Take `COc1cccc2c1C(=O)c1c(O)c3c(c(O)c1C2=O)C[C@@](O)(C(C)=O)C[C@@H]3O[C@H]1C[C@H](N)[C@H](O)[C@H](C)O1` [DAUNORUBICIN HYDROCHLORIDE, reference compound]: the Z-SCORE entry is “flagged”.
